Measurements from publication PMC8743659, “C1632 suppresses the migration and proliferation of non‐small‐cell lung cancer cells involving LIN28 and FGFR1 pathway” (Journal of Cellular and Molecular Medicine, 2021).

Columns and labels:
A549R xenograft tumours = test: NSCLC A549R xenograft model; assay type: in vivo, mice
Experimental: A total of 1.0 × 10^6 A549R cells were inoculated subcutaneously into the dorsal flank of the nude mice in 100 µl phosphate‐buffered saline (PBS). Mice were randomly divided into control and C1632 treatment groups (n = 4 per group). Mice were i.p. injected every other day for 18 days (A549R) at a dose of 30 mg/kg in 100 µl PBS per mouse. The tumours were resected, and their size was estimated from the measurements of weight or the longest diameter across the tumour and the corresponding perpendicular diameter.

A549 cells [1] = test: MTT cell viability assay; assay type: cell-based, human; settings: A549, high dose 60 mg/L
Experimental: (§1) The cell viability of MRC5, A549, and A549R were assessed by the 3‐(4,5‐dimethylthiazol‐2‐yl)‐2,5‐diphenyltetrazolium bromide (MTT) assay.[39] Cells were treated with indicated concentration of C1632 or 0.01% DMSO (Control) for 48 h before 20 μl/well MTT (0.5 mg/ml) was added for another 4 h. The reaction product formazan was dissolved in 100 μl DMSO and the absorbance at 560 nm was determined by the spectrophotometer (DTX880, Beckman Coulter).

MRC5 cells = test: MTT cell viability assay; assay type: cell-based, human; settings: MRC5, high dose 60 mg/L
Experimental: as §1

A549R cells [2] = test: MTT cell viability assay; assay type: cell-based, human; settings: high dose 60 mg/L
Experimental: as §1

[3] = test system: focal adhesion kinase (FAK); test: Immunofluorescence assay of FAK; assay type: cell-based, human; settings: A549R cells, 5 days, concentration-dependent
Experimental: Performing the immunofluorescence (IF) assay as previously described.[39] Briefly, cells were seeded to slide, fixed with 4% paraformaldehyde, and permeabilized using 0.5% Triton X‐100. Next, cells were incubated with primary antibodies against FAK (CST), followed by incubating with secondary antibodies (DyLight 488‐conjugated anti‐mouse). DAPI was used to stain the nuclear. The fluorescence image was captured by using Nikon Ti microscope and the quantitative analysis was carried out by ImageJ.

LIN28 = test: qPCR of LIN28 mRNA in NSCLC cells; assay type: cell-based, human; settings: A549 and A549R cells, 15, 30 and 60 mg/L, 5 days; especially in A549R
Experimental: Total RNA was extracted using RNAiso Plus (Takara) according to the manufacturer's instructions. cDNA was synthesized using PrimeScript II first‐strand cDNA Synthesis Kit (Takara), followed by amplification with RealStar Power SYBR Mixture (GenStar). miRNAs were quantified using the stem‐loop method, and U6 snRNA was adopted as internal control. Specific primer sequences were designed as previously reported.[40] qPCR was carried out with a LightCycler 480 Real‐Time PCR system (Roche). Data were analysed using the comparative Ct (2−ΔΔCt) method.[41] All experiments were performed in three independent experiments. qPCR primers for mRNA detection were as follows: GAPDH‐forward 5′‐[…]‐3′; GAPDH‐reverse 5′‐[…]‐3′; LIN28A‐forward 5′‐[…]‐3′; LIN28A‐reverse 5′‐GCGGTCATGGACA GGAAGCC‐3′; LIN28B‐forward 5′‐[…]‐3′; LIN28B‐reverse 5′‐[…]‐3′.

FGFR1 = test: Western blot of FGFR1 signalling in NSCLC cells; assay type: cell-based, human; settings: A549 and A549R cells, C1632 5 days, dose-dependent
Experimental: The total cell protein was extracted and denaturized at 95°C for 10 min. Samples were separated in SDS‐PAGE gel, then transferred to a PVDF membrane. […] Blots were probed with relevant primary antibodies against FGFR1 (CST), p‐FGFR1 (CST), MAPK (CST), p‐MAPK (CST), FAK (CST), p‐FAK (CST), MMP‐9 (CST), LIN28B (CST), GAPDH (CST), and β‐actin (proteintech) overnight at 4°C, respectively. Then the lanes were detected with HRP‐conjugated secondary antibodies and visualized using WESTAR SUPERNOVA kit ([…]).

A549 cells [4] = test: Colony formation assay; assay type: cell-based, human; settings: A549, 15, 30 and 60 mg/L, dose-dependent
Experimental: (§2) First, cells were treated with indicated concentrations of C1632 or 0.01% DMSO for 5 days. Then these cells were separated into single cells that were directly used for cloning. During the process of cloning, C1632‐treated A549 or A549R cells were still maintained in DMEM plus 10% FBS medium containing the indicated concentration of C1632 (15, 30, and 60 mg/L), while the control group was cultured with 0.01% DMSO. Both culture media were changed for every 2 days until 10 days. The number of forming colonies in C1632 or 0.01% DMSO‐treated groups was counted and the images were taken.

A549R cells [5] = test: Colony formation assay; assay type: cell-based, human; settings: A549R, 15, 30 and 60 mg/L, dose-dependent; stronger than in A549
Experimental: as §2

[6] = test system: matrix metalloproteinase-9 (MMP-9); test: Western blot of MMP-9; assay type: cell-based, human; settings: A549 and A549R cells, 5 days
Experimental: (§3) The total cell protein was extracted and denaturized at 95°C for 10 min. Samples were separated in SDS‐PAGE gel, then transferred to a PVDF membrane. Then this membrane was blocked with 5% non‐fat milk (solved in TBST) for 2.5 h at room temperature. Blots were probed with relevant primary antibodies against FGFR1 (CST), p‐FGFR1 (CST), MAPK (CST), p‐MAPK (CST), FAK (CST), p‐FAK (CST), MMP‐9 (CST), LIN28B (CST), GAPDH (CST), and β‐actin (proteintech) overnight at 4°C, respectively. Then the lanes were detected with HRP‐conjugated secondary antibodies and visualized using WESTAR SUPERNOVA kit (CYANAGEN).

[7] = test system: focal adhesion kinase (FAK); test: Western blot of p-FAK; assay type: cell-based, human; settings: A549 and A549R cells, 5 days
Experimental: as §3

A549 cells [8] = test: Cell cycle distribution analysis (flow cytometry); assay type: cell-based, human; settings: A549, 15, 30 and 60 mg/L, 5 days, dose-dependent
Experimental: (§4) Cells were cultured in the absence or presence of 15, 30, and 60 mg/L of C1632 or 0.01% DMSO for 5 days, trypsinized, washed, and stained with propidium iodide before cell cycle distribution was assessed on a flow cytometer (BD FACSCalibur, BD Biosciences).

A549R cells [9] = test: Cell cycle distribution analysis (flow cytometry); assay type: cell-based, human; settings: A549R, 15, 30 and 60 mg/L, 5 days, dose-dependent
Experimental: as §4

For `CC(=O)N(C)c1cccc(-c2ccc3nnc(C)n3n2)c1` [C1632], the “body weight of mice” value (A549R xenograft tumours; 30 mg/kg every 2 days for 18 days) was “did not affect”, the “growth of xenograft tumour cells (tumour volume over treatment period)” value (A549R xenograft tumours; 30 mg/kg every 2 days for 18 days, time-dependent) was “suppressed” and the “tumour size (weight), mean ± SD” value (A549R xenograft tumours; 30 mg/kg every 2 days, after 18 days, n = 4, untreated 2.35 ± 0.43 g, p < 0.05) was 1.36 ± 0.27 g. For the same compound, the cell viability (A549 cells [1]) was “decreased the viability”, the “cytotoxicity on normal foetal lung fibroblast cells” value (MRC5 cells) was “almost had no cytotoxicity” and the cell viability (A549R cells [2]) was “decreased the viability”. For the same compound, the “distribution and foci formation of FAK” value [3] was “reduced”, the “LIN28 mRNA levels” value (LIN28) was “decreased” and the “expression of FGFR1 and FGFR1 phosphorylation” value (FGFR1) was “inhibited”. The “phosphorylation of the downstream kinase MAPK” value (FGFR1) was “inhibited”, the “formation of colony units” value (A549 cells [4]) was “inhibited” and the “formation of colony units” value (A549R cells [5]) was “inhibited”. The “expression of MMP-9” value [6] was “efficiently decreased”, the “phosphorylation of FAK” value [7] was “efficiently decreased” and the cell cycle distribution (A549 cells [8]) was “arrested A549 and A549R cells at the G0/G1 phase”. For the same compound, the cell cycle distribution (A549R cells [9]) was “arrested A549 and A549R cells at the G0/G1 phase”.
